# Laboratory results from US20260159486A1, “BENZO[H]QUINAZOLINE-4-AMINE DERIVATIVES FOR THE TREATMENT OF CANCER” (Redona Therapeutics, Inc., priority 2021, published 2026).
# Experiments:
# [1] = target: T1, recombinant human CLK3 (Homo sapiens, UniProt P49761); assay: CLK3 kinase assay (LANCE Ultra); type: biochemical; settings: CLK3 0.5 nM, ATP 300 μM, 3 hours at 30° C.
# T1 construct: purchased Thermo Fisher Scientific PV3826
# Experimental: CLK3 kinase activity was measured using the LANCE® Ultra technology (PerkinElmer) essentially as recommended by the supplier. Briefly, 2.5 μL of test sample at 4× the desired final concentration in 4% DMSO were dispensed into white, low volume, round bottom, 384 well plates (Corning, cat. no. 4512). 5 μL of a mixture containing recombinant human CLK3 (Thermo Fisher Scientific, cat. no. PV3826) and the labeled peptide substrate ULight™-CREBtide (PerkinElmer, cat. no. TRF0107) prepared in 1.33× kinase buffer (Thermo Fisher Scientific, cat. no. PV3189) were then added. Finally, the reactions were started by adding 2.5 μL of a 4× solution of ATP in kinase buffer. The plates were sealed with adhesive foils and incubated for 3 hours at 30° C. in the dark. The final concentrations of CLK3, ULight™-CREBtide, and ATP were 0.5 nM, 50 nM, and 300 μM, respectively. 5 μL of 40 mM EDTA were then added to terminate the reactions. The Eu-anti-phospho-CREB antibody (PerkinElmer, cat. no. TRF0200) diluted in LANCE® detection buffer (PerkinElmer, cat. no. CR97) was then added to a final concentration of 2 nM and the reactions were incubated for 1 hour at room temperature in the dark. The signals were measured using a Synergy 4 reader (BioTek) with a 320/80 nm filter for the excitation and 620/10 nm and 665/8 nm filters for the donor and acceptor emission, respectively. Relative inhibition values were calculated by normalizing the raw data using solvent control wells (0% inhibition) and wells that received no ATP (100% inhibition). IC50 values were calculated by fitting the concentration-response data to a sigmoidal 4-parameter logistic model. IC50 values for CLK3 are determined from duplicate measurements at ten different concentrations (serial 1:3 dilutions).
# [2] = tested on: CAL-51 cells; assay: CAL-51 proliferation assay; type: cell-based; settings: Homo sapiens, CAL-51, 72 h, YO-PRO-1 Iodide readout
# Source text: (§1) MDA-MB-231 and CAL-51 Proliferation Assay
# (§2) Cells (MDA-MB-231 (American Type Culture Collection (ATCC), #HTB-26) or CAL-51 (Deutsche Sammlung von Mikroorganismen und Zellkulturen (DSMZ), #ACC302) as applicable) were cultivated in DMEM High Glucose (4.5 g/L) with L-Glutamine (BioConcept, cat. no. 1-26F03-I) supplemented with 1% Na-pyruvate (Sigma, cat. no. S8636), 1% Penicillin-Streptomycin (BioConcept, cat. no. 4-01F00H), and 10% FBS (Sigma, cat. no. F9665) using standard techniques. Cells were seeded in black, clear-bottom 384 well plates for tissue culture (Greiner Bio-One, cat. no. 781091) at a density of 750 cells per well in 20 μL medium and the plates were incubated overnight at 37° C. with 5% CO2 prior to treatment. Experimental compounds were serially diluted in DMSO to 200× the desired final concentrations. The solutions were then diluted 1:40 with culture medium and 5 μL aliquots were mixed into the wells containing the cells. The final concentration of DMSO was 0.5%. The plates were incubated for 72 hours and cell numbers were then measured using YO-PRO™-1 Iodide (ThermoFisher Scientific, cat. no. Y3603) essentially as recommended by the manufacturer. Briefly, a 12.5 μM solution of YO-PRO™_1 Iodide in 5× YO—PRO buffer (100 mM Na-citrate, 130 mM NaCl, pH 4) was combined with an equal volume of lysis buffer (0.6% NP-40, 30 mM EDTA, 30 mM EGTA, 0.33× YO—PRO buffer) and 12.5 μL of the mixture were dispensed into each well. The plates were incubated at room temperature in the dark for 30 minutes. Fluorescence intensity signals were then measured on a Synergy 4 reader (BioTek) using 485/20 nm and 530/25 nm filters for the excitation and emission, respectively. Relative proliferation values were calculated by normalizing the raw data using DMSO-treated cells (100% proliferation) and the signals obtained from cells that were evaluated at the time of compound addition (0% proliferation). The concentration-response data were fitted to a sigmoidal 4-parameter logistic model with the maximum constrained to 100%. GI50 values were calculated from the curves as the compound concentrations reducing proliferation to 50%.
# [3] = tested on: MDA-MB-231 cells; assay: MDA-MB-231 proliferation assay; type: cell-based; settings: Homo sapiens, MDA-MB-231, 72 h, YO-PRO-1 Iodide readout
# Source text: as §1, §2
# T1 sequence (P49761 whole entry): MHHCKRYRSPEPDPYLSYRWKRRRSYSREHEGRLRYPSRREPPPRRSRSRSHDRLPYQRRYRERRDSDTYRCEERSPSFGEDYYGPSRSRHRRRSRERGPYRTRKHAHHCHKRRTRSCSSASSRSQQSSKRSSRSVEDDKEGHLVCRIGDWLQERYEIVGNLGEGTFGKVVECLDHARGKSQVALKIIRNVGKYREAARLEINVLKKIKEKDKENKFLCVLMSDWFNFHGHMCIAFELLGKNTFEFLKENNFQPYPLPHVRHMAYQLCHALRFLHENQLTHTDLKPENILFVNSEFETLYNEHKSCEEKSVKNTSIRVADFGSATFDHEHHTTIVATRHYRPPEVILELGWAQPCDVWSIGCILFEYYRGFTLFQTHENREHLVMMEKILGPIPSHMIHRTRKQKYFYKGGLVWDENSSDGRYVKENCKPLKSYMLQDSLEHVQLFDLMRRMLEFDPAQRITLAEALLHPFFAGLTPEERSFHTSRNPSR
Compound,IC50 [1],GI50 [2],GI50 [3]
"CN(CC(C)(C)C(N)=O)c1c(O[C@H]2CC[C@H](N)CC2)ccc2c1CC(C)(C)c1c(N)ncnc1-2 [Example 88, 3-[[4-amino-8-(trans-4-aminocyclohexoxy)-5,5-dimethyl-6H-benzo[h]quinazolin-7-yl]-methyl-amino]-2,2-dimethyl-propanamide]",30 to 100 nM,100 to 2000 nM,> 2000 nM
"CN(c1c(O[C@H]2CC[C@H](N)CC2)ccc2c1CC(C)(C)c1c(N)ncnc1-2)S(=O)(=O)CCC(N)=O [Example 86, 3-[[4-amino-8-(trans-4-aminocyclohexoxy)-5,5-dimethyl-6H-benzo[h]quinazolin-7-yl]-methyl-sulfamoyl]propanamide]",< 30 nM,100 to 2000 nM,> 2000 nM
"COCCN(C)c1c(O[C@H]2CC[C@H](N)CC2)ccc2c1CC1(CCCC1)c1c(N)ncnc1-2 [Example 72, 8-(trans-4-aminocyclohexoxy)-N7-(2-methoxyethyl)-N7-methyl-spiro[6H-benzo[h]quinazoline-5,1′-cyclopentane]-4,7-diamine]",101 to 1000 nM,100 to 2000 nM,100 to 2000 nM
"COC1CCN(c2c(O[C@H]3CC[C@H](N)CC3)ccc3c2CC(C)(C)c2c(N)ncnc2-3)C1 (single isomer, unassigned) [Example 63, 8-(trans-4-aminocyclohexoxy)-7-(3-methoxypyrrolidin-1-yl)-5,5-dimethyl-6H-benzo[h]quinazolin-4-amine]",30 to 100 nM,100 to 2000 nM,100 to 2000 nM
"CC(C)CN(C)c1c(O[C@H]2CC[C@H](N)CC2)ccc2c1CC(C)(C)c1c(N)ncnc1-2 [Example 106, 8-(trans-4-aminocyclohexoxy)-N7-isobutyl-N7,5,5-trimethyl-6H-benzo[h]quinazoline-4,7-diamine]",30 to 100 nM,100 to 2000 nM,100 to 2000 nM
"CC1(C)Cc2c(ccc(O[C@H]3CC[C@H](N)CC3)c2C(=O)NCC#N)-c2ncnc(N)c21 [Example 90, 4-amino-8-(trans-4-aminocyclohexoxy)-N-(cyanomethyl)-5,5-dimethyl-6H-benzo[h]quinazoline-7-carboxamide]",< 30 nM,100 to 2000 nM,100 to 2000 nM
"Nc1ncnc2c1C1(CCCC1)Cc1c-2ccc(O[C@H]2CC[C@@H](N)CC2)c1NCC(=O)O [Example 79, 2-[[4-amino-8-(cis-4-aminocyclohexoxy)spiro[6H-benzo[h]quinazoline-5,1′-cyclopentane]-7-yl]amino]acetic acid]",30 to 100 nM,> 2000 nM,> 2000 nM
"CC1(C)Cc2c(ccc(O[C@H]3CC[C@H](N)CC3)c2S(=O)(=O)CCC#N)-c2ncnc(N)c21 [Example 112, 3-[[4-amino-8-(trans-4-aminocyclohexoxy)-5,5-dimethyl-6H-benzo[h]quinazolin-7-yl]sulfonyl]propanenitrile]",30 to 100 nM,100 to 2000 nM,> 2000 nM
"CN(c1c(O[C@H]2CC[C@H](N)CC2)ccc2c1CC(C)(C)c1c(N)ncnc1-2)S(=O)(=O)CCC#N [Example 74, N-[4-amino-8-(trans-4-aminocyclohexoxy)-5,5-dimethyl-6H-benzo[h]quinazolin-7-yl]-2-cyano-N-methyl-ethanesulfonamide]",< 30 nM,< 100 nM,100 to 2000 nM
"CN(CCC(=O)O)c1c(O[C@H]2CC[C@H](N)CC2)ccc2c1CC(C)(C)c1c(N)ncnc1-2 [Example 85, 3-[[4-amino-8-(trans-4-aminocyclohexoxy)-5,5-dimethyl-6H-benzo[h]quinazolin-7-yl]-methyl-amino]propanoic acid]",30 to 100 nM,> 2000 nM,> 2000 nM
"COc1ccc2c(c1NCc1nnc(C(C)F)o1)CC(C)(C)c1c(N)ncnc1-2 (stereo not drawn) [Example 122, N7-[[5-(1-fluoroethyl)-1,3,4-oxadiazol-2-yl]methyl]-8-methoxy-5,5-dimethyl-6H-benzo[h]quinazoline-4,7-diamine]",101 to 1000 nM,100 to 2000 nM,> 2000 nM
